The text below walks through data of PubChem BioAssay AID2060882 (Molecular Pharmacology Branch, DTP, NCI, 2025).

The test system of this assay is 898857-211-R-J1-PDC complex spheroids, growth % test/control. Nature of the assay: Anticancer human tumor 898857-211-R-J1-PDC patient-derived melanoma cell line growth inhibition [RAS]. To be noted: for viability, T/C: stronger effect = lower value. Put shortly: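 Agents were tested in combination matrices in half-log decrements from a top concentration at or near clinical Cmax (10 microM if undetermined). Targets were multi-cell spheroids of tumour lines plus HUVEC and MSC stromal cells.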

As usually defined, the IC50 is the concentration that inhibits the measured activity by half. By viability, T/C is commonly meant the ratio of treated to control.

Where “and” joins values, the source holds several entries; their conditions need not be identical. Identical values can stand only once.
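Further: spheroids exposed to compound for seven days before readout.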
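Wherever viability, T/C is given: 100% = DMSO vehicle control wells.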

As for `Cc1nc(N2CCC3(CC2)COC(C)C3N)c(CO)nc1Sc1ccnc(N)c1Cl` (stereo not drawn) + C=CC(=O)N1CCN(c2nc(OCC3CCCN3C)nc3c(F)c(-c4nc(N)cc(C)c4C(F)(F)F)c(Cl)cc23)C(C)C1, the IC50 is, setting by setting: (curve of first compound, second compound 0.00316 µM) > 10 µM; (curve of first compound, second compound 0.01 µM) > 10 µM; (curve of first compound, second compound 0.0316 µM) > 10 µM; (curve of first compound, second compound 0.1 µM) > 10 µM; (curve of first compound, second compound 0.316 µM) > 10 µM; (curve of first compound, second compound 1 µM) > 10 µM. The viability, T/C is, setting by setting: (second compound 0.00316 µM, first compound 0.0316 µM) 101%; (second compound 0.00316 µM, first compound 0.1 µM) 92.4%; (second compound 0.00316 µM, first compound 0.316 µM) 89%; (second compound 0.00316 µM, first compound 1 µM) 82.2%; (second compound 0.00316 µM, first compound 3.16 µM) 98.5%; (second compound 0.00316 µM, first compound 10 µM) 92.1%. Further, the viability, T/C is, setting by setting: (second compound 0.01 µM, first compound 0.0316 µM) 97.7%; (second compound 0.01 µM, first compound 0.1 µM) 94.6%; (second compound 0.01 µM, first compound 0.316 µM) 80.8%; (second compound 0.01 µM, first compound 1 µM) 91%; (second compound 0.01 µM, first compound 3.16 µM) 96.8%; (second compound 0.01 µM, first compound 10 µM) 81.1%. The viability, T/C runs as follows: (second compound 0.0316 µM, first compound 0.0316 µM) 104%; (second compound 0.0316 µM, first compound 0.1 µM) 102%; (second compound 0.0316 µM, first compound 0.316 µM) 95.4%; (second compound 0.0316 µM, first compound 1 µM) 98.5%; (second compound 0.0316 µM, first compound 3.16 µM) 97.3%; (second compound 0.0316 µM, first compound 10 µM) 99.5%. Moreover, the viability, T/C by setting is: (second compound 0.1 µM, first compound 0.0316 µM) 96.4%; (second compound 0.1 µM, first compound 0.1 µM) 102%; (second compound 0.1 µM, first compound 0.316 µM) 95.6%; (second compound 0.1 µM, first compound 1 µM) 94%; (second compound 0.1 µM, first compound 3.16 µM) 96.3%; (second compound 0.1 µM, first compound 10 µM) 91.7%. Further, the viability, T/C was 110% (second compound 0.316 µM, first compound 0.0316 µM); 102% (second compound 0.316 µM, first compound 0.1 µM); 107% (second compound 0.316 µM, first compound 0.316 µM); 103% (second compound 0.316 µM, first compound 1 µM); 98.1% (second compound 0.316 µM, first compound 3.16 µM); 93.5% (second compound 0.316 µM, first compound 10 µM). Also, the viability, T/C was 110% (second compound 1 µM, first compound 0.0316 µM); 106% (second compound 1 µM, first compound 0.1 µM); 92.9% (second compound 1 µM, first compound 0.316 µM); 97.4% (second compound 1 µM, first compound 1 µM); 107% (second compound 1 µM, first compound 3.16 µM); 82.2% (second compound 1 µM, first compound 10 µM).

With `NC1c2ccccc2OC12CCN(c1cnc3c(N4CCCc5ncccc54)n[nH]c3n1)CC2` (stereo not drawn), the viability, T/C is 98.9% [middle of 4 runs] (compound 0.0316 µM); 88.9% [middle of 4 runs] (compound 0.1 µM); 97.4% [middle of 4 runs] (compound 0.316 µM); 87% [middle of 4 runs] (compound 1 µM); 94.4% [middle of 4 runs] (compound 3.16 µM). For the setting “curve of compound”, the half-inhibitory concentration (IC50) was > 10 µM and 9.39 µM.
